Measured values published in patent US20240174618A1, “SUBSTITUTED (2-HETEROARYLOXYPHENYL)SULFONATES, SALTS THEREOF AND THEIR USE AS HERBICIDAL AGENTS” (Bayer Aktiengesellschaft, priority 2021, published 2024).

Legend:
Format in all cases: in vivo
[1] = test system: Alopecurus myosuroides (ALOMY); assay: A. Herbicidal pre-emergence efficacy, ALOMY; settings: scored visually after about 3 weeks vs untreated controls
Excerpt: Seeds of mono- and dicotyledonous weed plants were placed in plastic pots in sandy loam soil (doubly sown with one species each of mono- or dicotyledonous weed plants per pot) and covered with soil. The compounds of the invention, formulated in the form of wettable powders (WP) or as emulsion concentrates (EC), were then applied onto the surface of the covering soil as aqueous suspension or emulsion with addition of 0.5% additive at a water application rate of 600 liters per hectare (converted). After the treatment, the pots were placed in a greenhouse and kept under good growth conditions for the test plants. After about 3 weeks, the efficacy of the preparations was scored visually in comparison with untreated controls as percentages.
For example, • 100% efficacy=plants have died, • 0% efficacy=like untreated control plants.
Tables A1a to A12c below show the effects of selected compounds of the general formula (I) according to table 1 on various harmful plants at an application rate corresponding to 1280 g/ha or less, which were obtained by the experimental procedure mentioned above.

[2] = test system: Echinochloa crus-galli (ECHCG); assay: A. Herbicidal pre-emergence efficacy, ECHCG; settings: scored visually after about 3 weeks vs untreated controls
Summary of the method: (§1)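 Pre-emergence soil-surface spray in sandy loam pots, WP/EC in water plus 0.5% additive, 600 L/ha. Visual % damage rating after about 3 weeks in greenhouse vs. untreated; 0% = control-like, 100% = dead plants. Rates up to 1280 g/ha.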

[3] = test system: Stellaria media (STEME); assay: A. Herbicidal pre-emergence efficacy, STEME
Summary of the method: as §1

[4] = test system: Kochia scoparia (KCHSC); assay: B. Herbicidal post-emergence efficacy, KCHSC; settings: for Post-emergence efficacy against KCHSC in %: rated visually after about 3 weeks; for Post-emergence efficacy against KCHSC: 1280 g/ha
Summary of the method: (§2)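 First, seeds were sown in sandy loam and grown 2 to 3 weeks under controlled greenhouse conditions. Next, foliage at the one-leaf stage received the formulated compound in water with 0.5% additive (600 L/ha, 1280 g/ha or less). Finally, damage was rated visually after about 3 weeks against untreated plants.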

[5] = test system: Setaria viridis (SETVI); assay: B. Herbicidal post-emergence efficacy, SETVI
Summary of the method: as §2

[6] = test system: Abutilon theophrasti (ABUTH); assay: C. Herbicidal pre-emergence efficacy, ABUTH; settings: scored after about 3 weeks
Summary of the method: (§3)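 Pre-emergence test: formulated compounds sprayed as aqueous suspension or emulsion with 0.5% additive at 600 l/ha onto soil covering sown seeds, at rates corresponding to 320 g/ha or less. After about 3 weeks in greenhouse, efficacy scored visually as percent versus untreated controls (100% = plants dead).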

[7] = test system: Polygonum convolvulus (POLCO); assay: C. Herbicidal pre-emergence efficacy, POLCO; settings: scored after about 3 weeks
Summary of the method: as §3

[8] = test system: Amaranthus retroflexus (AMARE); assay: E. Herbicidal post-emergence efficacy, AMARE
Summary of the method: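 Greenhouse post-emergence spray, one-leaf stage (2–3 wk after sowing, sandy loam); WP/EC formulation, aqueous + 0.5% additive, 600 l/ha water; rates 320 g/ha or less. Visual rating ~3 wk later vs untreated; 0% = control-like, 100% = dead.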

| SMILES | Pre-emergence efficacy against ALOMY ([1]; 320 g/ha) [%] | Pre-emergence efficacy against ALOMY ([1]; 1280 g/ha) [%] | Pre-emergence efficacy against ECHCG ([2]; 80 g/ha) [%] | Pre-emergence efficacy against ECHCG ([2]; 320 g/ha) [%] | Pre-emergence efficacy against ECHCG ([2]; 1280 g/ha) [%] | Pre-emergence efficacy against STEME ([3]; dosage 80 g/ha) [%] | Pre-emergence efficacy against STEME ([3]; dosage 320 g/ha) [%] | Pre-emergence efficacy against STEME ([3]; dosage 1280 g/ha) [%] | Post-emergence efficacy against KCHSC in % ([4]; 80 g/ha) [%] | Post-emergence efficacy against KCHSC in % ([4]; 320 g/ha) [%] | Post-emergence efficacy against KCHSC [4] [%] | Post-emergence efficacy against SETVI ([5]; 320 g/ha) [%] | Post-emergence efficacy against SETVI ([5]; 1280 g/ha) [%] | Pre-emergence efficacy against ABUTH ([6]; 80 g/ha) [%] | Pre-emergence efficacy against ABUTH ([6]; 320 g/ha) [%] | Pre-emergence efficacy against POLCO ([7]; 80 g/ha) [%] | Pre-emergence efficacy against POLCO ([7]; 320 g/ha) [%] | Post-emergence efficacy against AMARE in % ([8]; application rate 80 g/ha) [%] | Post-emergence efficacy against AMARE in % ([8]; application rate 320 g/ha) [%] |
| --- | --- | --- | --- | --- | --- | --- | --- | --- | --- | --- | --- | --- | --- | --- | --- | --- | --- | --- | --- |
| O=S(=O)(CCCCl)Oc1ccccc1Oc1ncc(Cl)cn1 [Example I-2] | 100 | 100 | 90 | 100 | 100 | 100 | 100 | 100 | 100 | 100 | 100 | 100 | 100 | 100 | 100 | 90 | 100 | 100 | 100 |
| CCCS(=O)(=O)Oc1ccccc1Oc1ncc(Cl)cn1 [Example I-3] | 90 | 100 | – | 100 | 100 | 100 | 100 | 100 | 90 | 90 | 90 | – | 90 | 100 | 100 | – | 100 | – | 100 |
| O=S(=O)(CCCCl)Oc1ccccc1Oc1ncc(F)cn1 [Example I-5] | – | 90 | – | 100 | 100 | 90 | 100 | 100 | 100 | 100 | 100 | 90 | 100 | – | 100 | 90 | 100 | 100 | 100 |
| CCCCS(=O)(=O)Oc1ccccc1Oc1ncc(Cl)cn1 [Example I-6] | – | 90 | 100 | 100 | 100 | 100 | 100 | 100 | 90 | 90 | 90 | – | 90 | 90 | 100 | 90 | 90 | 90 | 100 |
| O=S(=O)(CCC(F)(F)F)Oc1ccccc1Oc1ncc(Cl)cn1 [Example I-8] | – | 90 | 90 | 90 | 100 | 100 | 100 | 100 | 90 | 90 | 90 | 90 | 90 | 100 | 100 | 90 | 90 | 100 | 100 |
| Cc1cccc(Oc2ncc(Cl)cn2)c1OS(=O)(=O)CCCC(F)(F)F [Example I-28, 2-[(5-Chloropyrimidin-2-yl)oxy]-6-methylphenyl 4,4,4-trifluorobutane-1-sulfonate] | – | 100 | 90 | 100 | 100 | 90 | 100 | 100 | – | 90 | 100 | 90 | 90 | – | – | – | – | – | – |
| Cc1cccc(Oc2ncc(Cl)cn2)c1OS(=O)(=O)CCC(F)(F)F [Example I-29] | – | 90 | – | 100 | 100 | 90 | 100 | 100 | – | 100 | 100 | 100 | 100 | – | – | – | – | – | – |
